Publication PMC5384001 (Scientific Reports, 2017)
Substitutions are numbered along the chain they refer to.

Tests used:
GluD2-Lc(A686S) = molecular target: T1, GluD2-Lc(A686S) (Rattus norvegicus, UniProt Q63226, A654T/A686S); experiment: Two-electrode voltage clamp in Xenopus oocytes, inhibition of spontaneous currents; type: cell-based; conditions: fraction of spontaneous current inhibited by saturating D-serine
T1 construct: the function of full-length receptors as well, we introduced them into the GluD2 lurcher mutant (GluD2-Lc); expressed in transfected cells; host or cells: Xenopus laevis oocytes injected with cRNA
T1 sequence (Q63226 24-1007 A654T/A686S): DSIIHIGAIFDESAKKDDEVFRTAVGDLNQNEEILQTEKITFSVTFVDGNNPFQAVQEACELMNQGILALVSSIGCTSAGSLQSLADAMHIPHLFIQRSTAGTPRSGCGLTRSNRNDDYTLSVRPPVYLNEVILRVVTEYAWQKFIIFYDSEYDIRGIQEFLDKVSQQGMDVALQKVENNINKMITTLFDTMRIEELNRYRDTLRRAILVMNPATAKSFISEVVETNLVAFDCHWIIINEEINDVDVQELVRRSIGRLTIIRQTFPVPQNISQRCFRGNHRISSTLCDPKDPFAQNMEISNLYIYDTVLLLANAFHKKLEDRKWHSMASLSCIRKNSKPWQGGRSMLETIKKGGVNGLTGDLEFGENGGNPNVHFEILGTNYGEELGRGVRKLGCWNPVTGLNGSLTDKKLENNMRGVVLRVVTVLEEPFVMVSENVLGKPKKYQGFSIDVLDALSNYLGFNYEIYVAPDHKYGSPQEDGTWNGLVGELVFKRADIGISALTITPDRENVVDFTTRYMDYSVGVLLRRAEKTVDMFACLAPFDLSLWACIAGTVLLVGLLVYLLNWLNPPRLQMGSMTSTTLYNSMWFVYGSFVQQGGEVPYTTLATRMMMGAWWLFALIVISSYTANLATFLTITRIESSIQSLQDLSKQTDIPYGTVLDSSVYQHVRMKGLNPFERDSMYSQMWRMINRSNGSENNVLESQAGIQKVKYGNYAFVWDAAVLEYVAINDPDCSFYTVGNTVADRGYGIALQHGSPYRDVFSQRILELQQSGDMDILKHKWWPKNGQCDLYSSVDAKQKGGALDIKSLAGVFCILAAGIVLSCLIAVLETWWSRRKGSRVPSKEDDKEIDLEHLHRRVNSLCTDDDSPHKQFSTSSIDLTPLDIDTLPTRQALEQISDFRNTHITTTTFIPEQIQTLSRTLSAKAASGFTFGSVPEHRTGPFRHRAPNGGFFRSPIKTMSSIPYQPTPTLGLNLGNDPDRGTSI
Excerpt: (§1) All cDNAs for expression in Xenopus oocytes were cloned into the vector pSGEM[30]. Point mutants of GluD2-Lc were constructed by overlap extension PCR with mutagenic oligonucleotide primers. The GluD2-Lc-(H)GluN1 chimera was constructed by transferring the S1- and S2-encoding sequences from GluD2-LBD-(H)GluN1 to GluD2-Lc via overlap extension PCR using tail primers. The S1 and S2 sequences were transferred separately, yielding GluD2-Lc-(HS1)GluN1 and GluD2-Lc-(HS2)GluN1 constructs. GluD2-Lc-(H)GluN1 was then produced from these by another overlap extension PCR. Complementary RNA (cRNA) for injection into oocytes was synthesised from 1 μg of linearised template DNA with the mMESSAGE mMACHINE in vitro transcription kit (Ambion, Austin, TX, USA).
(§2) Oocytes were obtained by surgically removing parts of the ovaries from Xenopus laevis (Nasco, Fort Atkinson, WI, USA) anaesthetised with 1.5 g/L 3-aminobenzoic acid ethylester (Sigma, Taufkirchen, Germany). […] Oocytes were injected with 11 ng cRNA (10 ng of each cRNA for co-expression of GluN1 and GluN2A) using a nanoliter injector (WPI, Sarasota, FL, USA). Four days after cRNA injection, current responses were recorded under voltage clamp at –70 mV with a Turbo Tec-10CD amplifier (npi electronic, Tamm, Germany) controlled by Patchmaster software (HEKA, Lambrecht, Germany). Currents were filtered with a 20 Hz low-pass filter and then digitised with a sampling rate of 50 Hz. Recording electrodes were pulled from borosilicate glass (Hilgenberg, Malsfeld, Germany) with an L/M-3P-A vertical pipette puller (List-Medical), filled with 3 M KCl, and had resistances of 0.5–5 MΩ (voltage electrode) or 0.5–1.5 MΩ (current electrode). Recordings were performed in a 50 μL chamber under constant superfusion with extracellular solution at a flow rate of 3–5 mL/min. […] Finally, Ba-NFR and then NMDGR were applied again to check for reversibility.

GluD2-Lc(Y496F) = molecular target: T2, GluD2-Lc(Y496F) (Rattus norvegicus, UniProt Q63226, A654T/Y496F); experiment: as above; type: cell-based; conditions: fraction of spontaneous current inhibited by saturating D-serine
T2 construct: the function of full-length receptors as well, we introduced them into the GluD2 lurcher mutant (GluD2-Lc); expressed in transfected cells; host or cells: Xenopus laevis oocytes injected with cRNA
T2 sequence (Q63226 24-1007 Y496F/A654T): T1 sequence (Q63226 24-1007 A654T/A686S) with Y473F, S663A
Excerpt: as §1, §2

N[C@H](CO)C(=O)O [D-serine]
D-serine efficacy Mean ± SEM (GluD2-Lc(A686S)): 43.9 ± 0.7%
D-serine efficacy Mean ± SEM (GluD2-Lc(Y496F)): 43.5 ± 2.0%
